In ChEMBL document CHEMBL5678818, “Discovery of potent SOS1 inhibitors that block RAS activation via disruption of the RAS-SOS1 interaction” (Proc Natl Acad Sci U S A, 2019):

Legend:
[1] = target: T1, Serine/threonine-protein kinase Nek2 (Homo sapiens) (UniProt P51955); assay: Inhibition of NEK2 (unknown origin) assessed as residual activity at 1000 nM by KINOMEscan analysis relative to control
T1 sequence (whole entry): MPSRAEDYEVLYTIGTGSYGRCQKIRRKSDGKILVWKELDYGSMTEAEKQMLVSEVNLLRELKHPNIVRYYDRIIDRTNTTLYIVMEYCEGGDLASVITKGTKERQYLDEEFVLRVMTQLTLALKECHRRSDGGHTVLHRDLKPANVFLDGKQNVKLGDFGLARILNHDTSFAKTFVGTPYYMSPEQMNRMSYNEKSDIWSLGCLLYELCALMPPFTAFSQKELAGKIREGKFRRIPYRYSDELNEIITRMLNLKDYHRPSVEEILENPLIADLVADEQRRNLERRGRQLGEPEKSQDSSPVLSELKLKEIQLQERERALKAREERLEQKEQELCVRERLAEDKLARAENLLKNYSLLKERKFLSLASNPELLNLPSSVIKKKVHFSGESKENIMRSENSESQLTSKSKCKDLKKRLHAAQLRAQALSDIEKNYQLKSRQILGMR

[2] = target: Ribosomal protein S6 kinase alpha-2 (Homo sapiens) (UniProt Q15349); assay: Inhibition of C-terminal RSK3 […] domain 2 (unknown origin) assessed as residual activity at 1000 nM by KINOMEscan analysis relative to control
[3] = target: Serine/threonine-protein kinase RIO2 (Homo sapiens) (UniProt Q9BVS4); assay: Inhibition of RIOK2 (unknown origin) assessed as residual activity at 1000 nM by KINOMEscan analysis relative to control
[4] = target: Ribosomal protein S6 kinase alpha-4 (Homo sapiens) (UniProt O75676); assay: Inhibition of N-terminal RPS6KA4 […] domain 1 (unknown origin) assessed as residual activity at 1000 nM by KINOMEscan analysis relative to control
[5] = target: Epidermal growth factor receptor (Homo sapiens, UniProt P00533); assay: Inhibition of EGFR (unknown origin) assessed as residual activity at 1000 nM by KINOMEscan analysis relative to control
[6] = target: Cyclin-dependent kinase 4/cyclin D1 (Homo sapiens) (UniProt P11802+P24385); assay: Inhibition of CDK4-cyclin D1 (unknown origin) assessed as residual activity at 1000 nM by KINOMEscan analysis relative to control; format: protein-complex assay
[7] = target: T2, Mitogen-activated protein kinase kinase kinase 6 (Homo sapiens) (UniProt O95382); assay: Inhibition of ASK2 (unknown origin) assessed as residual activity at 1000 nM by KINOMEscan analysis relative to control
T2 sequence (whole entry): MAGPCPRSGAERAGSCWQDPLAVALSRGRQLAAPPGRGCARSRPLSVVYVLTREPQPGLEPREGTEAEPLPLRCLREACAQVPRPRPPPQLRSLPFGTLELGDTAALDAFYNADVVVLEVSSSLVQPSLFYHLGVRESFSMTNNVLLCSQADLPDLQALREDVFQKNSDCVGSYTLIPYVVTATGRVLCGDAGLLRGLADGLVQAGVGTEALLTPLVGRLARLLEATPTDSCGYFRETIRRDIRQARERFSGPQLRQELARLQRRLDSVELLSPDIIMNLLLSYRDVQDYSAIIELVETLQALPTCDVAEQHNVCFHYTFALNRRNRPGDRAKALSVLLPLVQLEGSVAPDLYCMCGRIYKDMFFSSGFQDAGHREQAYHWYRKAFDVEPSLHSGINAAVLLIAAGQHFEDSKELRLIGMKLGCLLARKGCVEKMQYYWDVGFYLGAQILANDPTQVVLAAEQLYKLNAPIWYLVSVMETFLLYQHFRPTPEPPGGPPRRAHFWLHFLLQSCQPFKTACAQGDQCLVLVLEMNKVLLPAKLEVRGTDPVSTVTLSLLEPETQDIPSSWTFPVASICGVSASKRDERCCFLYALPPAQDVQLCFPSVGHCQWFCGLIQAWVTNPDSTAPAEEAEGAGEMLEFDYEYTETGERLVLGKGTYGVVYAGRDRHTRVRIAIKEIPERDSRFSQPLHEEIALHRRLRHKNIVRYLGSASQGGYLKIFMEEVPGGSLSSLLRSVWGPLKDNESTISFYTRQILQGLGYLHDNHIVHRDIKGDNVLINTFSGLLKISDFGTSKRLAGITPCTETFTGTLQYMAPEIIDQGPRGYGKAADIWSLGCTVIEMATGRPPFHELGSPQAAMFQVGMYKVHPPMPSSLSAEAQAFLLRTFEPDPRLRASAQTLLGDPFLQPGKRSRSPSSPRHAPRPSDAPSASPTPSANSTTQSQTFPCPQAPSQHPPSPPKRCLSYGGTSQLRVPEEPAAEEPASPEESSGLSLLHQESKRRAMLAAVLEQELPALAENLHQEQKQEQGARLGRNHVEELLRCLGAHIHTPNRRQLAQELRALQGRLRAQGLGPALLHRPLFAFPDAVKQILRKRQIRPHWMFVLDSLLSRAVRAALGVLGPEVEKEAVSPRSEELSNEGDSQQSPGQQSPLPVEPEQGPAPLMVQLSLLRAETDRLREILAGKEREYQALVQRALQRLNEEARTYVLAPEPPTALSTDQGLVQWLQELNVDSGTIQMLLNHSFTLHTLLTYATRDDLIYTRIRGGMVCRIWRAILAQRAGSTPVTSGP

[8] = target: NT-3 growth factor receptor (Homo sapiens) (UniProt Q16288); assay: Inhibition of TRKC (unknown origin) assessed as residual activity at 1000 nM by KINOMEscan analysis relative to control
[9] = target: Mitogen-activated protein kinase 6 (Homo sapiens) (UniProt Q16659); assay: Inhibition of ERK3 (unknown origin) assessed as residual activity at 1000 nM by KINOMEscan analysis relative to control
[10] = target: Fibroblast growth factor receptor 1 (Homo sapiens) (UniProt P11362); assay: Inhibition of FGFR1 (unknown origin) assessed as residual activity at 1000 nM by KINOMEscan analysis relative to control
[11] = target: GTPase KRas (Homo sapiens) (UniProt P01116); assay: Stabilization of N-terminal His10-tagged wild-type recombinant human KRAS (1 to 169 residues) expressed in Escherichia coli assessed as change in melting temperature at 100 uM with heating from 25 to 85 degreeC by thermal shift assay

SMILES	Activity [1]	Activity [2]	Activity [3]	Activity [4]	Activity [5]	Activity [6]	Activity [7]	Activity [8]	Activity [9]	Activity [10]	ΔTm [11]
COc1cc2nc(C)nc(N[C@H](C)c3cccc(-c4cn[nH]c4)c3)c2cc1OC	89%	67%	61%	0%	88%	100%	69%	88%	100%	65%	–
CNCc1ccccc1-c1csc([C@@H](C)Nc2nc(C)nc3cc(OC)c(OC)cc23)c1 [BAY-293]	–	–	–	–	–	–	–	–	–	–	0.23 °C
COc1cc2ncnc(N[C@H](C)c3cccc4ccccc34)c2cc1OC	98%	96%	82%	100%	3.2%	98%	67%	95%	94%	80%	-1.1 °C
